Tests used:
[1] = H2O2 generation by free L-Trp upon light exposure for 3 hours (Amplex assay); format: physicochemical
Method: It was previously reported that L-Trp produced H2O2 via superoxide ion and in a sub-stoichiometric fashion while antibodies under similar conditions were producing catalytic amounts (Wentworth et al., Science 293(5536):1806-11 (2001); McCormick et al., Journal of the American Chemical Society 100:312-313 (1978)). To test the susceptibility of free L-Trp under pharmaceutically relevant conditions, such as under both ICH and ambient light conditions, formulations comprising 0.32 mM to 7.5 mM of L-Trp were exposed for 3 hours at 250 W/m^2 UV light and about 150 k lux visible light. Samples were taken and analyzed immediately via the Amplex assay to detect the amount of H2O2 generated under these conditions. […] When L-Trp was incubated with a combination of 50 mM NaN3 and 150 U superoxide dismutase (SOD) or SOD alone, significant amounts of H2O2 were still detected in the samples not containing NaN3.

[2] = Photosensitivity screening: H2O2 formation by antioxidant candidates upon light exposure (Amplex Ultra Red Assay); format: physicochemical
Method: As a screening tool, antioxidant candidates were exposed to light for four hours at 250 W/m^2 and the resulting H2O2 formation was quantified by the Amplexassay. Specifically, antioxidants were prepared to 1 mM in 20 mM histidine acetate buffer at pH 5.5. The 1 mM antioxidant solutions were aliquoted into glass vials (2 mL/glass vial) and exposed to four hours of light at 250 W/m^2 in an Atlas SunTest CPS+ Xenon Test Instrument (Chicago, Ill.). Total UV dose was 90 watt-hours/square meter and total visible dose was 0.22 million lux hours over the 4-hour period. Control vials were wrapped in aluminum foil and treated similarly. The amount of hydrogen peroxide generated after exposure to light was measured using the Amplex® Ultra Red Assay (Invitrogen, Carlsbad, Calif.) following the manufacturer's recommended procedure. On addition of horseradish peroxidase (HRP), the dye reacted 1:1 stoichiometrically with H2O2, resulting in the production of fluorescent oxidation product resorufin. In this study, fluorescence readings were obtained using a Spectra Max M2 Micro-plate Reader (Molecular Devices, Sunnyvale, Calif.) with excitation and emission set at 560 nm and 590 nm, respectively. Final H2O2 concentrations were determined using a standard curve ranging from 0 μm to 20 μm. […]

mAb1 [3] = assay: mAb1 light stress study, 16 hours; Fab/Fc oxidation by RP-HPLC; format: physicochemical, human; conditions: 16 hours of light at 250 W/m^2
Method: The fragments were reduced with DTT, and then separated and identified via Liquid Chromatography-Mass Spectrometry (LC-MS). […] Comparison of area integrated under the oxidized and native peaks was used to quantify HC Fab and Fc oxidation. […] By using the papain digest RP-HPLC method in the present study it was possible to investigate Trp residue oxidation by quantifying HC Fab oxidation, and Met residue oxidation by quantifying HC Fc oxidation.
Antioxidants were added at 1 mM. Glass vials containing these formulations were exposed to 250 W/m^2 light in an Atlas SunTest CPS+ Xenon Test Instrument (Chicago, Ill.). Control vials were wrapped in aluminum foil and treated similarly. After light exposure, solutions were prepared for analysis by reverse-phase HPLC as described above.

mAb1 [4] = assay: mAb1 light stress, eight hours, with L-Trp and L-Met; Fab/Fc oxidation by papain digest RP-HPLC; format: physicochemical, human; conditions: 5 mg/mL mAb1, 8 h light at 250 W/m^2, L-Trp at 1 mM
Method: L-tryptophan (L-Trp), an antioxidant used in protein formulations, has been recently shown to be photosensitive (Igarashi et al., Anal Sci 23(8):943-8 (2007)) and to have the ability to produce H2O2 upon light exposure. […] Control vials were wrapped in aluminum foil and treated similarly. After light exposure, solutions were prepared for analysis by reverse-phase HPLC. […] Following incubation, 900 μL of the solution was combined with 100 μL of 1 M dithiothreitol (DTT) and incubated for another thirty minutes at 37° C. Samples were then run on an Agilent, Inc. 1100/1200 HPLC system (Santa Clara, Calif.) equipped with UV detection at 280 nm in conjunction with a Varian, Inc. Pursuit 3 μm, 2 mm ID×250 mm diphenyl column (Palo Alto, Calif.). Mobile Phase A was 0.1% TFA in water. Mobile Phase B was 0.1% TFA in acetonitrile. The mobile phase gradient increased linearly from 34% B at 0 minutes to 43% B at 50.0 minutes, then to 95% B at 50.1 minutes. The gradient remained at 95% B until 60.1 minutes, and then decreased linearly from 95% B to 34% B between 60.1 and 60.2 minutes. The gradient remained at 34% B until the end of the cycle at 80.2 minutes. The column temperature was 65° C., total flow rate was 0.2 mL/min, and injection volume of each sample was 6 μL. Chromatograms were then integrated for quantification of oxidation.

mAb1 [5] = assay: mAb1 Fenton stress study (H2O2 + Fe); Fab/Fc oxidation by RP-HPLC; format: physicochemical, human; conditions: 1 mM, 10 ppm H2O2, 0.2 mM Fe(III), 40° C. for 3 hours
Method: Antioxidants were added at a final concentration of 1 mM. […] After incubation, each reaction was quenched by addition of 100 mM L-Met and then prepared for analysis by reverse-phase HPLC as described above.
The Fenton reaction, using a mixture of H2O2 and Fe ions, generates oxidation through a metal catalyzed, hydroxyl radical reaction (Prousek et al., Pure and Applied Chemistry 79(12):2325-2338 (2007)). This reaction generated Fab, i.e. tryptophan, oxidation in mAb1. The reaction was also carried out in the presence of select antioxidants that were useful against both AAPH and light induced oxidation as reported above. Data related to the antioxidant properties against Fenton mediated reaction were analyzed using the RP-HPLC assay as described above. The Fenton reaction used 10 ppm of H2O2 and 0.2 mM of Fe(III). The reaction was incubated at 40° C. for 3 hours, quenched with 100 mM L-Met and analyzed using RP-HPLC after papain digest. All samples were the average of three separate vials, and mAb1 control (Ref Mat) was one vial with five independent injections on the HPLC. […] In regards to protection against Fc oxidation, the tested excipients (other than salicylic acid) performed slightly better than L-Trp.

For `N[C@@H](Cc1c[nH]c2ccccc12)C(=O)O` [L-Trp, L-Tryptophan], the “H2O2 generated by free L-Trp upon light exposure” value ([1]; 0.32 mM to 7.5 mM L-Trp, 3 hours at 250 W/m^2 UV light and about 150 k lux visible light) was “large quantity of H2O2”, the “H2O2 generation by L-Trp in the presence of sodium azide” value ([1]; 50 mM sodium azide, 3 hours light) was “reduced greatly” and the “(H2O2 produced by Compound)/(H2O2 produced by L-Trp)” value ([2]; 1 mM in 20 mM histidine acetate pH 5.5, four hours of light at 250 W/m^2) was 1. The “H2O2 production upon light exposure compared to L-Trp (in words)” value ([2]; 1 mM, 20 mM L-His-acetate pH 5.5, 4 h light, 0.22 million lux hours) was “produced more H2O2”, the “Fc oxidation relative to the control level” value (mAb1 [3]; 1 mM L-Trp) was 7 times and the “Fab oxidation increase over the control level (mAb1 Ref Mat)” value (mAb1 [3]; excipient 1 mM, label mAb1 = No Excipient) was “over 11 fold”. The “Fc oxidation of mAb1” value (mAb1 [4]) was “over 20%”, the “Fab oxidation of mAb1” value (mAb1 [4]; label mAb1 = No Excipient) was roughly 9% and the “Protection of Fab oxidation with respect to the no excipient case” value (mAb1 [5]) was “about 25%”.

Source: patent US10653779B2, “Formulations with reduced oxidation” (Genentech, Inc., priority 2013, dated 2020)
